# Source: US20260272797A1, “FRAGRANCE COMPOSITION” (GIVAUDAN SA, priority 2023, published 2026)
# Experiments:
# [1] = Gas-phase evaluation of each fragrance ingredient alone against model scalp malodour, MiniVAS device, panel of 5 experts; conditions: for Scalp MOC of ingredient alone: expert description
# Procedure: In a first set of experiments, the scalp malodour counteractancy of 173 fragrance ingredients was evaluated by panel of 5 experts.
# The evaluation was performed in the gas phase, using a MiniVAS™ device (ex Givaudan SA). This device is a regulating means that comprises a plurality of channels adapted to convey a gas (more particularly air) through cartridges, each cartridge containing a fragrance ingredient adsorbed onto an adsorbent. The air flows coming from the different cartridges are admixed and conveyed to the user's nose through a tubing fitted with an olfactometer funnel. Thus, by opening and closing channels and maintaining these opened and closed, respectively, for predetermined times, the regulating means can determine which fragrance ingredients and how much thereof are conveyed and when, and thus alter the nature of the fragrance perceived by the user. A description of the device can be found in WO2014154909A1, page 2, line 11 to page 4, line 7, and in H. R. Gygax et al. “Evolution of Real Time Aroma Creation at Givaudan”, poster presented at the 12th Weurman Flavour Research Symposium. July 2008. Interlaken, Switzerland; DOI: 10.13140/2.1.1924.0641.
# For the sake of the present evaluation, one cartridge contained the scalp malodour (in the form of a model malodour) and each fragrance ingredient was assigned to another cartridge. The malodour counteractancy of each fragrance ingredient was evaluated separately against the scalp malodour. A constant air flow rate of 50 ml/min was used for all measurements. The perceived malodour intensity, as well as the fragrance intensity, were ranked on a scale of 1-5 (1=barely noticeable, 2=weak, 3=medium, 4=strong and 5=very strong).
# [2] = Impact of fragrance ingredients on scalp malodour counteractancy of 80 fragrance compositions (Example 2 protocol, statistical presence); conditions: series of 80 fragrance compositions
# Procedure: In a second set of experiments, the impact of these fragrance ingredients on the scalp malodour counteractancy of a fragrance composition was assessed. The scalp malodour counteractancy of a series of 80 fragrance compositions was assessed by performing the evaluation protocol described in Example 2. […] Ingredients that were statistically more present in fragrances having a high malodour counteractancy were assigned a positive status, whereas ingredients that were statistically more present in compositions having a low malodour counteractancy were assigned a negative status.
# [3] = Table 3, air flow 50 ml/min, scale of 1-5 (1=barely noticeable, 5=very strong)
# [4] = Table 4, air flow 50 ml/min, scale of 1-5
Compound,"MO intensity [1, 3]","Scalp MOC of ingredient alone ([1]; Table 3, gas phase)",Impact on scalp MOC of fragrance composition ([2]; Table 3),"MO intensity [1, 4]",Impact on scalp MOC of fragrance composition ([2]; Table 4),"Scalp MOC of ingredient alone ([1]; Table 4, gas phase)"
"C=CC(C)(O)CC/C=C(\C)CCC=C(C)C (stereo not shown) [(E)-3,7,11-trimethyldodeca-1,6,10-trien-3-ol]",1,No effect,Positive,,,
"CC(=O)/C(C)=C/C1=C(C)CCCC1(C)C [(E)-3-methyl-4-(2,6,6-trimethylcyclohex-1-en-1-yl)but-3-en-2-one]",3,,Positive,,,
"CC(=O)/C(C)=C/C1C(C)=CCCC1(C)C (stereo not shown) [(E)-3-methyl-4-(2,6,6-trimethylcyclohex-2-en-1-yl)but-3-en-2-one]",3,,Positive,,,
"CC1=CCC(/C=C/C(C)C(C)O)C1(C)C (stereo not shown) [(E)-3-methyl-5-(2,2,3-trimethylcyclopent-3-en-1-yl)pent-4-en-2-ol]",4.3,,Positive,,,
"CC(=O)/C=C/C1C(C)=CCCC1(C)C (stereo not shown) [(E)-4-(2,6,6-trimethyl-1-cyclohex-2-enyl)but-3-en-2-one]",,,,4.5,Negative,
"CC(=O)/C=C/C1=C(C)CCCC1(C)C [(E)-4-(2,6,6-trimethylcyclohex-1-en-1-yl)but-3-en-2-one]",,,,1,Negative,
"O=CCC/C=C1\CC2CC1[C@H]1CCC[C@@H]21 (stereo partly drawn) [(E)-4-((3aS,7aS)-hexahydro-1H-4,7-methanoinden-5(6H)-ylidene)butanal]",2.5,,Positive,,,
C/C=C(\CC)CCC(C)CCO (stereo not shown) [(E)-6-ethyl-3-methyloct-6-en-1-ol],3,,Positive,,,
CC1C/C=C/CCCCCCCC(=O)OCC1 (stereo not shown) [(E)-13-methyloxacyclopentadec-10-en-2-one],2,,Positive,,,
CCCCCC/C=C/C(=O)OC [(E)-methyl non-2-enoate],1,No effect,Positive,,,
"CC(=O)OC/C=C(/C)CCC=C(C)C [(Z)-3,7-dimethylocta-2,6-dien-1-yl acetate]",,,,1,Negative,
CC/C=C\CC1=C(C)CCC1=O [(Z)-3-methyl-2-(pent-2-en-1-yl)cyclopent-2-enone],,,,1.8,Negative,Low coverage
CC1C/C=C\CCCCCCCCCC(=O)C1 (stereo not shown) [(Z)-3-methylcyclopentadec-5-enone],2.1,,Positive,,,
O=C1CCC/C=C\CCCCCCCCCC1 [(Z)-cyclohexadec-5-enone],,,,1,Negative,Enhances MO
CC/C=C\CCOC(=O)c1ccccc1 [(Z)-hex-3-en-1-yl benzoate],,,,2,Negative,Low coverage
C=CCOC(=O)COC1CCCCC1 [allyl 2-(cyclohexyloxy)acetate],,,,4.3,Negative,
"O=Cc1ccc2c(c1)OCO2 [benzo[d][1,3]dioxole-5-carbaldehyde]",3,,Positive,,,

Compound,"MO intensity [1, 3]","Scalp MOC of ingredient alone ([1]; Table 3, gas phase)",Impact on scalp MOC of fragrance composition ([2]; Table 3),"MO intensity [1, 4]",Impact on scalp MOC of fragrance composition ([2]; Table 4),"Scalp MOC of ingredient alone ([1]; Table 4, gas phase)"
CC(=O)OCc1ccccc1 [benzyl acetate],,,,0,Negative,Enhances MO
CCC(=O)OCc1ccccc1 [benzyl propanoate],,,,1,Negative,
O=C(OC1CCCCC1)c1ccccc1O [cyclohexyl 2-hydroxybenzoate],1,No effect,Positive,,,
"CCOC(=O)C1=C(C)C=CCC1(C)C [ethyl 2,6,6-trimethylcyclohexa-1,3-diene-1-carboxylate]",,,,1,Negative,
"CCOC(=O)CC1(C)OCCO1 [ethyl 2-(2-methyl-1,3-dioxolan-2-yl)acetate]",2.3,,Positive,,,
CCOC(=O)C(C)C [ethyl 2-methylpropanoate],1,No effect,Positive,,,
CCCCCCC(=O)OCC [ethyl heptanoate],1,No effect,Positive,,,
CCOC(=O)C1OC1(C)c1ccccc1 (stereo not shown) [ethyl methyl phenyl glycidate],,,,1,Negative,
CCCCCCCC(=O)OCC [ethyl octanoate],1,No effect,Positive,,,
COC(=O)c1ccccc1N [methyl 2-aminobenzoate],4.3,,Positive,,,
CCCCCCC1C(=O)CCC1C(=O)OC (stereo not shown) [methyl 2-hexyl-3-oxocyclopentane-1-carboxylate],,,,1,Negative,
CCCCCCC#CC(=O)OC [methyl non-2-ynoate],1.8,,Positive,,,
C=CCOC(=O)CCC1CCCCC1 [prop-2-enyl 3-cyclohexylpropanoate],,,,1.5,Negative,
CC(C)CC1CC(C)(O)CCO1 (stereo not shown) [tetrahydro-4-methyl-2-(2-methylpropyl)-2H-pyran-4-ol],,,,2.2,Negative,Low coverage
CCCCCCCCCCC=O [undecanal],,,,1,Negative,Enhances MO
mercapto-para-menthan-3-one,1,No effect,Positive,,,
